Laboratory results taken from BigSolDB 2.1.

O=C(O)c1ccc(C(=O)O)cc1
solubility (mole fraction)
Settings | 303.2 K | 313.2 K | 323.2 K | 333.2 K | 343.2 K | 353.2 K | 363.2 K
in DMAc | 0.016 | 0.0211 | 0.0269 | 0.0331 | 0.0385 | 0.0452 | 0.0524
in NMP | 0.0133 | 0.0155 | 0.0188 | 0.0216 | 0.0256 | 0.0287 | 0.0328
